# Results reported in ChEMBL document CHEMBL1765002, “Inhibitors of the oncogenic transcription factor AP-1 from Podocarpus latifolius” (J Nat Prod, 2011).
# Target: Transcription factor Jun (Homo sapiens, UniProt P05412)
# Test: Inhibition of TPA-induced AP-1 activation in cells expressing beta-lactamase after 18 hrs using FRET substrate by cell-based high-throughput screening assay
# Chain of Transcription factor Jun (P05412 whole entry): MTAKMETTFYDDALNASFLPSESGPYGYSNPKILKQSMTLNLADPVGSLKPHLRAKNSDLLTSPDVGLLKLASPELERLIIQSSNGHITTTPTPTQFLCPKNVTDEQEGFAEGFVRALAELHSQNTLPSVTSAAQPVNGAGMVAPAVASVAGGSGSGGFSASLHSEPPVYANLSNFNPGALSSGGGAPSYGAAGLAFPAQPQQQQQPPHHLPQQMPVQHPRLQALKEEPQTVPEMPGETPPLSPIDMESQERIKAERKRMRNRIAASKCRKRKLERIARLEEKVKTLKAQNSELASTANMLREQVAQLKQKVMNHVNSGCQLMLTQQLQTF
row,Structure (SMILES),IC50 [nM]
1,CC(C)[C@H]1OC(=O)C=C2C1=C[C@H]1OC(=O)[C@@]3(C)CCC[C@@]2(C)[C@@H]13 [NAGILACTONE F],1500
2,CC(C)[C@H]1OC(=O)C=C2[C@]3(C)[C@H]4[C@H](OC(=O)[C@@]4(C)[C@@H](O)[C@H]4O[C@H]43)[C@H]3O[C@]213 [INUMAKILACTONE],4000
